Test results as given in DBAASP.
Converted amounts (≈) assume the structure as drawn.

What was measured:
Assay in all cases: ≥ marks a high value that may be exact or a test limit, other limits are often not marked, values filed in µg/mL are converted to µM
[1] = tested on: Mycobacterium tuberculosis H37Rv
[2] = tested on: Staphylococcus aureus ATCC 29213
[3] = tested on: Staphylococcus aureus ATCC 25923
[4] = tested on: Staphylococcus aureus USA 300
[5] = tested on: Escherichia coli LMG 15862
[6] = tested on: Pseudomonas aeruginosa LMG 6395
[7] = tested on: Pseudomonas aeruginosa H103
[8] = tested on: Salmonella enterica serovar Typhimurium
[9] = tested on: Candida parapsilosis ATCC 22019
Candida albicans = tested on: Candida albicans
Escherichia coli UB1005 = tested on: Escherichia coli UB1005
[10] = tested on: Pseudomonas aeruginosa ATCC 9027
[11] = tested on: Klebsiella aerogenes LMG 02094
[12] = tested on: Klebsiella pneumoniae LMG 20218
[13] = tested on: Staphylococcus epidermidis
[14] = tested on: Malassezia furfur KCTC 7744
[15] = tested on: Enterococcus faecalis ATCC 29212
[16] = tested on: Escherichia coli ATCC 25922
[17] = tested on: Acinetobacter baumannii LMG 01041
[18] = tested on: Trichosporon beigelii KCTC 7707
[19] = tested on: Pseudomonas aeruginosa PAO1 H103
[20] = tested on: Staphylococcus aureus USA 100
[21] = tested on: Micrococcus luteus ATCC 4698
[22] = tested on: Escherichia coli KCTC 2433
[23] = tested on: Bacillus subtilis ATCC 6633
[24] = tested on: Proteus mirabilis ATCC 25933
[25] = tested on: Klebsiella pneumoniae ATCC 10031
[26] = tested on: Staphylococcus epidermidis ATCC 12228
[27] = tested on: Staphylococcus aureus KCTC 3881
[28] = tested on: Shigella dysenteriae ATCC 9752
[29] = tested on: Candida albicans ATCC 36232
[30] = tested on: Bacillus subtilis KCCM 11495
[31] = tested on: Escherichia coli KCCM 11569
[32] = tested on: Saccharomyces cerevisiae AS2.430
[33] = tested on: Klebsiella aerogenes ATCC 13048
[34] = tested on: Acinetobacter baumannii ATCC 7978
[35] = tested on: Staphylococcus aureus MW2
[36] = tested on: Candida albicans ATCC 10231
[37] = tested on: Staphylococcus aureus ATCC 29231
Pseudomonas aeruginosa = tested on: Pseudomonas aeruginosa
[38] = tested on: Pseudomonas aeruginosa ATCC 27853
Klebsiella pneumoniae = tested on: Klebsiella pneumoniae
Pseudomonas sp. = tested on: Pseudomonas sp.
Staphylococcus aureus = tested on: Staphylococcus aureus
Bacillus subtilis = tested on: Bacillus subtilis
Citrobacter sp. = tested on: Citrobacter sp.
Acinetobacter sp. = tested on: Acinetobacter sp.
Escherichia coli = tested on: Escherichia coli

Question: How did the MIC [1] turn out when `CC[C@H](C)[C@H](NC(=O)[C@@H](NC(=O)[C@H](Cc1c[nH]c2ccccc12)NC(=O)[C@@H](NC(=O)[C@@H](N)CCCN=C(N)N)[C@@H](C)CC)C(C)C)C(=O)N[C@@H](Cc1c[nH]c2ccccc12)C(=O)N[C@@H](CCCN=C(N)N)C(=O)N[C@@H](CCCN=C(N)N)C(N)=O` [RIWVIWRR] was run?
Answer: 2.2 µM (≈ 2.6 µg/mL)

Question: And the MIC [2]?
Answer: 6.75 µM (≈ 7.99 µg/mL)

Question: And the MIC [3]?
Answer: 1.69 µM (≈ 2 µg/mL)

Question: What about the MIC [4] of the same molecule?
Answer: 6.25 µM (≈ 7.4 µg/mL)

Question: And the MIC [5]?
Answer: 3 µM (≈ 3.55 µg/mL)

Question: And the MIC [6]?
Answer: 3 µM (≈ 3.55 µg/mL)

Question: What about the MIC [7] of the same molecule?
Answer: 6.75 µM (≈ 7.99 µg/mL)

Question: And the MIC [8]?
Answer: 6.75 µM (≈ 7.99 µg/mL)

Question: What about the MIC [9] of the same molecule?
Answer: 12.5 µM (≈ 14.8 µg/mL)

Question: What about the MIC (Candida albicans) of the same molecule?
Answer: 6.75 µM (≈ 7.99 µg/mL)

Question: And the MIC (Escherichia coli UB1005)?
Answer: 1.69 µM (≈ 2 µg/mL)

Question: What about the MIC [10] of the same molecule?
Answer: 12.5 µM (≈ 14.8 µg/mL)

Question: And the MIC [11]?
Answer: 5 µM (≈ 5.92 µg/mL)

Question: And the MIC [12]?
Answer: 6 µM (≈ 7.1 µg/mL)

Question: What about the MIC [13] of the same molecule?
Answer: 1.69 µM (≈ 2 µg/mL)

Question: And the MIC [14]?
Answer: 25 µM (≈ 29.6 µg/mL)

Question: What about the MIC [15] of the same molecule?
Answer: 1.69 µM (≈ 2 µg/mL)

Question: What about the MIC [16] of the same molecule?
Answer: 3.38 µM (≈ 4 µg/mL)

Question: What about the MIC [17] of the same molecule?
Answer: 2 µM (≈ 2.37 µg/mL)

Question: And the MIC [18]?
Answer: 12.5 µM (≈ 14.8 µg/mL)

Question: And the MIC [19]?
Answer: 3.38 µM (≈ 4 µg/mL)

Question: And the MIC [20]?
Answer: 6.25 µM (≈ 7.4 µg/mL)

Question: How did the MIC [21] turn out when `CC[C@H](C)[C@H](NC(=O)[C@H](CC(C)C)NC(=O)[C@@H](N)Cc1ccccc1)C(=O)NCC(=O)N[C@@H](CCSC)C(=O)N[C@H](C(=O)N[C@@H](Cc1cnc[nH]1)C(=O)NCC(=O)N[C@@H](CC(C)C)C(=O)N[C@H](C(=O)N[C@H]1CSSC[C@@H](C(=O)O)NC(=O)[C@H](CCCCN)NC(=O)[C@H](CCCN=C(N)N)NC(=O)[C@H](CO)NC(=O)[C@H]([C@@H](C)CC)NC(=O)[C@H](CC(C)C)NC1=O)[C@@H](C)CC)[C@@H](C)O` [FLIGMTHGLICLISRKC] was run?
Answer: 6.56 µM (≈ 12.5 µg/mL)

Question: What about the MIC [22] of the same molecule?
Answer: ≥ 52.5 µM

Question: And the MIC [23]?
Answer: 26.2 µM (≈ 49.9 µg/mL)

Question: What about the MIC [10] of the same molecule?
Answer: > 52.5 µM

Question: What about the MIC [24] of the same molecule?
Answer: ≥ 52.5 µM

Question: And the MIC [25]?
Answer: ≥ 52.5 µM

Question: And the MIC [26]?
Answer: 31.5 µM (≈ 59.9 µg/mL)

Question: And the MIC [27]?
Answer: 13.1 µM (≈ 25 µg/mL)

Question: What about the MIC [28] of the same molecule?
Answer: ≥ 52.5 µM

Question: What about the MIC [29] of the same molecule?
Answer: ≥ 52.5 µM

Question: Which MIC [30] does the source give for `CC(C)C[C@H](NC(=O)CNC(=O)[C@H](Cc1cnc[nH]1)NC(=O)[C@H](Cc1cnc[nH]1)NC(=O)[C@H](CC(C)C)NC(=O)[C@H](CC(C)C)NC(=O)[C@H](C)NC(=O)[C@H](CC(N)=O)NC(=O)[C@H](CC(C)C)NC(=O)[C@@H](N)Cc1c[nH]c2ccccc12)C(=O)N[C@@H](CC(N)=O)C(=O)N[C@@H](CS)C(=O)N[C@@H](C)C(=O)N[C@@H](CCCCN)C(=O)NCC(=O)N[C@H](C(N)=O)C(C)C` [WLNALLHHGLNCAKGV] here?
Answer: 6.48 µM (≈ 11.3 µg/mL)

Question: And the MIC [31]?
Answer: 25.9 µM (≈ 45.2 µg/mL)

Question: Which results are given for `CC(C)C[C@H](NC(=O)[C@H](CO)NC(=O)CNC(=O)[C@H](CCC(=O)O)NC(=O)[C@H](CC(C)C)NC(=O)[C@H](CCC(=O)O)NC(=O)[C@H](C)NC(=O)[C@H](CCC(N)=O)NC(=O)[C@H](CO)NC(=O)[C@H](CCC(=O)O)NC(=O)[C@H](CCC(=O)O)NC(=O)[C@@H](N)Cc1ccc(O)cc1)C(=O)N[C@@H](CCCCN)C(=O)O` [YEESQAELEGSLK]?
Answer: MIC [3]: 211 µM (≈ 313 µg/mL); MIC [32]: ≥ 6750 µM; MIC [16]: 211 µM (≈ 313 µg/mL)

Question: Which MIC [33] does the source give for `CC[C@H](C)[C@H](NC(=O)[C@H](CCCCN)NC(=O)[C@H](CCCCN)NC(=O)[C@H](CC(C)C)NC(=O)[C@@H](NC(=O)[C@H](CCCCN)NC(=O)[C@H](Cc1c[nH]c2ccccc12)NC(=O)[C@@H](N)CC(C)C)[C@@H](C)CC)C(=O)N[C@@H](Cc1c[nH]c2ccccc12)C(=O)N[C@@H](CCCN=C(N)N)C(=O)N[C@H](C(=O)N[C@@H](CC(C)C)C(=O)N[C@@H](Cc1c[nH]c2ccccc12)C(=O)N[C@@H](CC(N)=O)C(=O)N[C@@H](Cc1c[nH]c2ccccc12)C(=O)N[C@@H](CCCN=C(N)N)C(=O)O)C(C)C` [LWKILKKIWRVLWNWR] here?
Answer: ≥ 57.2 µM

Question: What about the MIC [34] of the same molecule?
Answer: ≥ 57.2 µM

Question: And the MIC [35]?
Answer: 28.6 µM (≈ 64 µg/mL)

Question: What about the MIC [36] of the same molecule?
Answer: 28.6 µM (≈ 64 µg/mL)

Question: What about the MIC [37] of the same molecule?
Answer: 14.3 µM (≈ 32 µg/mL)

Question: What does the source list for `CC[C@H](C)[C@H](NC(=O)[C@H](CC(C)C)NC(=O)[C@H](CCCN=C(N)N)NC(=O)[C@H](CC(C)C)NC(=O)[C@H](CCCCN)NC(=O)CN)C(=O)N[C@@H](CCCCN)C(=O)N[C@@H](CCCCN)C(=O)N[C@@H](CC(C)C)C(=O)N[C@@H](Cc1c[nH]c2ccccc12)C(=O)N[C@H](C(=O)N[C@@H](CCCCN)C(=O)N[C@@H](CCCCN)C(=O)N[C@@H](Cc1c[nH]c2ccccc12)C(=O)N[C@@H](CCCCN)C(=O)N[C@@H](CCCCN)C(=O)N[C@@H](CCCCN)C(=O)NCC(=O)N[C@@H](Cc1c[nH]c2ccccc12)C(=O)N[C@@H](CCCCN)C(=O)N[C@@H](C)C(N)=O)C(C)C` [GKLRLIKKLWVKKWKKKGWKA]?
Answer: MIC (Pseudomonas aeruginosa): 2 µM (≈ 5.24 µg/mL); MIC [3]: 2 µM (≈ 5.24 µg/mL); MIC [38]: 2 µM (≈ 5.24 µg/mL); MIC (Klebsiella pneumoniae): 2.83 µM (≈ 7.42 µg/mL); MIC (Pseudomonas sp.): 2 µM (≈ 5.24 µg/mL); MIC (Staphylococcus aureus): 4 µM (≈ 10.5 µg/mL); MIC (Bacillus subtilis): 2 µM (≈ 5.24 µg/mL); MIC (Citrobacter sp.): 2 µM (≈ 5.24 µg/mL); MIC (Acinetobacter sp.): 2 µM (≈ 5.24 µg/mL); MIC (Escherichia coli): 2 µM (≈ 5.24 µg/mL); MIC [16]: 2 µM (≈ 5.24 µg/mL)
